How the values were obtained:
DENV-2 16681 strain = assay: DENV-2 antiviral assay (eGFP-labeled virus in Vero cells); type: cell-based, Dengue virus; settings: DENV-2 16681 eGFP, MOI 0.5, 3 days
Procedure: The antiviral activity of all the compounds of the invention was tested against the DENV-2 16681 strain which was labeled with enhanced green fluorescent protein (eGPF). The culture medium consists of minimal essential medium supplemented with 2% of heat-inactivated fetal calf serum, 0.04% gentamycin (50 mg/mL) and 2 mM of L-glutamine. Vero cells, obtained from ECACC, were suspended in culture medium and 25 μL was added to 384-well plates (2500 cells/well), which already contain the antiviral compounds. Typically, these plates contain a 5-fold serial dilution of 9 dilution steps of the test compound at 200 times the final concentration in 100% DMSO (200 nL). […] Finally, each plate contains wells which are assigned as virus controls (containing cells and virus in the absence of compound), cell controls (containing cells in the absence of virus and compound) and medium controls (containing medium in the absence of cells, virus and compounds). To the wells assigned as medium control, 25 μL of culture medium was added instead of Vero cells. Once the cells were added to the plates, the plates were incubated for 30 minutes at room temperature to allow the cells to distribute evenly within the wells. Next, the plates were incubated in a fully humidified incubator (37° C., 5% CO2) until the next day. Then, DENV-2 strain 16681, labeled with eGFP, was added at a multiplicity of infection (MOI) of 0.5. Therefore, 15 μL of virus suspension was added to all the wells containing test compound and to the wells assigned as virus control. In parallel, 15 μL of culture medium was added to the medium and cell controls. Next, the plates were incubated for 3 days in a fully humidified incubator (37° C., 5% CO2). At the day of the read out, the eGFP fluorescence was measured using an automated fluorescence microscope at 488 nm (blue laser). Using an in-house LIMS system, inhibition dose response curves for each compound were calculated and the half maximal effective concentration (EC50) was determined. Therefore, the percent inhibition (I) for every test concentration is calculated using the following formula: I=100*([…])/(SVC−SCC); ST, SCC and SVC are the amount of eGFP signal in the test compound, cell control and virus control wells, respectively. The EC50 represents the concentration of a compound at which the virus replication is inhibited with 50%, as measured by a 50% reduction of the eGFP fluorescent intensity compared to the virus control. The EC50 is calculated using linear interpolation (Table 1).

[1] = Toxicity on the same plates (ATPlite cell viability); settings: African green monkey, CC50, Vero cells, same plates as DENV-2 antiviral assay
Vero cells = assay: as above; settings: Vero cells, same plates as DENV-2 antiviral assay
[2] = Dengue virus, DENV2, Vero, 72 h

COc1cc(NC(C(=O)c2c[nH]c3ccc(OC(F)(F)F)cc23)c2ccc(F)cc2OC)cc(OCCO)c1 (single isomer, unassigned) [Compound 5A, 2-(4-fluoro-2-methoxyphenyl)-2-((3-(2-hydroxyethoxy)-5-methoxyphenyl)amino)-1-(5-(trifluoromethoxy)-1H-indol-3-yl)ethanone]
EC50 (DENV-2 16681 strain): 30 nM | CC50 [1]: 5400 nM

COc1cc(NC(C(=O)c2c[nH]c3cc(OC)c(C(F)(F)F)cc23)c2ccc(Cl)cc2OC)cc(OCCO)c1 (racemic) [Compound 10, 2-(4-chloro-2-methoxyphenyl)-2-((3-(2-hydroxyethoxy)-5-methoxyphenyl)amino)-1-(6-methoxy-5-(trifluoromethyl)-1H-indol-3-yl)ethanone]
EC50 (DENV-2 16681 strain; [2]): 0.27 nM | CC50 [1]: 3200 nM

COc1cc(NC(C(=O)c2c[nH]c3cc(OC)c(OC(F)(F)F)cc23)c2ccc(Cl)cc2OC)cc(OCCO)c1 (racemic) [Compound 14, 2-(4-chloro-2-methoxyphenyl)-2-((3-(2-hydroxyethoxy)-5-methoxyphenyl)amino)-1-(6-methoxy-5-(trifluoromethoxy)-1H-indol-3-yl)ethanone]
EC50 (DENV-2 16681 strain; [2]): 0.34 nM | CC50 [1]: 3500 nM

COc1cc(NC(C(=O)c2c[nH]c3cc(F)c(C(F)(F)F)cc23)c2ccc(F)cc2OC)cc(OCCO)c1 (racemic) [Compound 3, 2-(4-fluoro-2-methoxyphenyl)-1-(6-fluoro-5-(trifluoromethyl)-1H-indol-3-yl)-2-((3-(2-hydroxyethoxy)-5-methoxyphenyl)amino)ethanone]
EC50 (DENV-2 16681 strain; [2]): 0.99 nM | CC50 [1]: 3000 nM

COc1cc(NC(C(=O)c2c[nH]c3cc(F)c(OC(F)(F)F)cc23)c2ccc(Cl)cc2OC)cc(OCCO)c1 (single isomer, unassigned) [Compound 15A, 2-(4-chloro-2-methoxyphenyl)-1-(6-fluoro-5-(trifluoromethoxy)-1H-indol-3-yl)-2-((3-(2-hydroxyethoxy)-5-methoxyphenyl)amino)ethanone]
EC50 (DENV-2 16681 strain): 9.9 nM | CC50 [1]: 3800 nM

COc1cc(NC(C(=O)c2c[nH]c3ccc(C(F)(F)F)cc23)c2ccc(Cl)cc2OC)cc(OCCO)c1 (single isomer, unassigned) [Compound 9A, 2-(4-chloro-2-methoxyphenyl)-2-((3-(2-hydroxyethoxy)-5-methoxyphenyl)amino)-1-(5-(trifluoromethyl)-1H-indol-3-yl)ethanone]
EC50 (DENV-2 16681 strain): 12 nM | CC50 [1]: 3500 nM

COc1cc(NC(C(=O)c2c[nH]c3ccc(C(F)(F)F)cc23)c2ccc(Cl)cc2OC)cc(OCCO)c1 (racemic) [Compound 9, 2-(4-chloro-2-methoxyphenyl)-2-((3-(2-hydroxyethoxy)-5-methoxyphenyl)amino)-1-(5-(trifluoromethyl)-1H-indol-3-yl)ethanone]
EC50 (DENV-2 16681 strain; [2]): 0.29 nM | CC50 [1]: 2500 nM

COc1cc(NC(C(=O)c2c[nH]c3c(C)cc(C(F)(F)F)cc23)c2ccc(F)cc2OC)cc(OCCO)c1 (racemic) [Compound 4, 2-(4-fluoro-2-methoxyphenyl)-2-((3-(2-hydroxyethoxy)-5-methoxyphenyl)amino)-1-(7-methyl-5-(trifluoromethyl)-1H-indol-3-yl)ethanone]
EC50 (DENV-2 16681 strain; [2]): 0.62 nM | CC50 [1]: 6100 nM

COc1cc(NC(C(=O)c2c[nH]c3ccc(OC(F)(F)F)cc23)c2ccc(Cl)cc2OC)cc(OCCO)c1 (single isomer, unassigned) [Compound 13B, 2-(4-chloro-2-methoxyphenyl)-2-((3-(2-hydroxyethoxy)-5-methoxyphenyl)amino)-1-(5-(trifluoromethoxy)-1H-indol-3-yl)ethanone]
EC50 (DENV-2 16681 strain): 7.2 nM | CC50 (Vero cells): 5800 nM

COc1cc(NC(C(=O)c2c[nH]c3c(C)cc(C(F)(F)F)cc23)c2ccc(Cl)cc2OC)cc(OCCO)c1 (single isomer, unassigned) [Compound 12B, 2-(4-chloro-2-methoxyphenyl)-2-((3-(2-hydroxyethoxy)-5-methoxyphenyl)amino)-1-(7-methyl-5-(trifluoromethyl)-1H-indol-3-yl)ethanone]
EC50 (DENV-2 16681 strain): 38 nM | CC50 (Vero cells): 11000 nM

COc1cc(NC(C(=O)c2c[nH]c3ccc(OC(F)(F)F)cc23)c2ccc(F)cc2OC)cc(OCCO)c1 (racemic) [Compound 5, 2-(4-fluoro-2-methoxyphenyl)-2-((3-(2-hydroxyethoxy)-5-methoxyphenyl)amino)-1-(5-(trifluoromethoxy)-1H-indol-3-yl)ethanone]
EC50 (DENV-2 16681 strain; [2]): 0.5 nM | CC50 [1]: 4500 nM

COc1cc(NC(C(=O)c2c[nH]c3c(C)cc(C(F)(F)F)cc23)c2ccc(F)cc2OC)cc(OCCO)c1 (single isomer, unassigned) [Compound 4A, 2-(4-fluoro-2-methoxyphenyl)-2-((3-(2-hydroxyethoxy)-5-methoxyphenyl)amino)-1-(7-methyl-5-(trifluoromethyl)-1H-indol-3-yl)ethanone]
EC50 (DENV-2 16681 strain): 63 nM | CC50 (Vero cells): 11000 nM

COc1cc(NC(C(=O)c2c[nH]c3c(C)cc(OC(F)(F)F)cc23)c2ccc(F)cc2OC)cc(OCCO)c1 (racemic) [Compound 8, 2-(4-fluoro-2-methoxyphenyl)-2-((3-(2-hydroxyethoxy)-5-methoxyphenyl)amino)-1-(7-methyl-5-(trifluoromethoxy)-1H-indol-3-yl)ethanone]
EC50 (DENV-2 16681 strain; [2]): 0.41 nM | CC50 [1]: 4700 nM
